From ChEMBL document CHEMBL1806384, “Identification of benzofuran-4,5-diones as novel and selective non-hydroxamic acid, non-peptidomimetic based inhibitors of human peptide deformylase” (Bioorg Med Chem Lett, 2011)

Tests used:
[1] = Cytotoxicity against human Meso47 cells; type: functional, cell-based
[2] = Cytotoxicity against human ALL3 cells; type: functional, cell-based
HEK293 = experiment: Cytotoxicity against human HEK293 cells; type: cell-based
Y79 = experiment: Cytotoxicity against human Y79 cells; type: functional, cell-based
HL-60 [3] = experiment: Antitumor activity against human HL60 cells xenografted in athymic nude mouse assessed as tumor growth delay at 15 mg/kg, ip administered 3 times a week for 2 weeks; type: functional; conditions: route intraperitoneal
[4] = Cytotoxicity against human CWR22 cells; type: functional, cell-based
MOLT-3 = experiment: Cytotoxicity against human MOLT3 cells; type: functional, cell-based
[5] = target: T1, Interstitial collagenase (Homo sapiens) (UniProt P03956); experiment: Inhibition of human recombinant MMP1 at 100 uM after 1 hr by fluorescence polarization based competition assay
T1 sequence (whole entry): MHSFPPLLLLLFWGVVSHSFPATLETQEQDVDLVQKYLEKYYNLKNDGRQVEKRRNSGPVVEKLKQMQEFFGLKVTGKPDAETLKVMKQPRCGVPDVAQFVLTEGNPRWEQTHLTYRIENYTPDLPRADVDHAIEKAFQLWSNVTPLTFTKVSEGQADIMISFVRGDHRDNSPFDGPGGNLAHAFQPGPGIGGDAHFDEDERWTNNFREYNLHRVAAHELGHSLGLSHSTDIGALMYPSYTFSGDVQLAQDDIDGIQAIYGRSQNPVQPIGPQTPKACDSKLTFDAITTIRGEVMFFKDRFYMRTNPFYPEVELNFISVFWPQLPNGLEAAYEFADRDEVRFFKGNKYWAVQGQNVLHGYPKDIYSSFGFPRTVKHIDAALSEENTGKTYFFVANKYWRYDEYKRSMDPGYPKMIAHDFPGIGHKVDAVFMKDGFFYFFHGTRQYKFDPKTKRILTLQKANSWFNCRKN

HL-60 [6] = experiment: Cytotoxicity against human vincristine-resistant HL60 cells; type: functional, cell-based
Jurkat = experiment: Cytotoxicity against human Jurkat cells; type: functional, cell-based
Peptide deformylase = target: T2, Peptide deformylase (Escherichia coli, UniProt Q9JN24); experiment: Inhibition of Escherichia coli peptide deformylase after 1 hr by fluorescence polarization based competition assay
T2 sequence (Q9JN24 whole entry): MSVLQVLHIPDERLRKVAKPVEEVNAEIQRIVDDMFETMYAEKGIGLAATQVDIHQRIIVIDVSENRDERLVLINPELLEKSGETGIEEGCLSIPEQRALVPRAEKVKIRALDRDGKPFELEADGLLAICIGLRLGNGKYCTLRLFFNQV

[7] = target: T3, Aminopeptidase N (Sus scrofa) (UniProt P15145); experiment: Inhibition of porcine kidney microsomal aminopeptidase N at 100 uM after 1 hr by fluorescence polarization based competition assay
T3 sequence (whole entry): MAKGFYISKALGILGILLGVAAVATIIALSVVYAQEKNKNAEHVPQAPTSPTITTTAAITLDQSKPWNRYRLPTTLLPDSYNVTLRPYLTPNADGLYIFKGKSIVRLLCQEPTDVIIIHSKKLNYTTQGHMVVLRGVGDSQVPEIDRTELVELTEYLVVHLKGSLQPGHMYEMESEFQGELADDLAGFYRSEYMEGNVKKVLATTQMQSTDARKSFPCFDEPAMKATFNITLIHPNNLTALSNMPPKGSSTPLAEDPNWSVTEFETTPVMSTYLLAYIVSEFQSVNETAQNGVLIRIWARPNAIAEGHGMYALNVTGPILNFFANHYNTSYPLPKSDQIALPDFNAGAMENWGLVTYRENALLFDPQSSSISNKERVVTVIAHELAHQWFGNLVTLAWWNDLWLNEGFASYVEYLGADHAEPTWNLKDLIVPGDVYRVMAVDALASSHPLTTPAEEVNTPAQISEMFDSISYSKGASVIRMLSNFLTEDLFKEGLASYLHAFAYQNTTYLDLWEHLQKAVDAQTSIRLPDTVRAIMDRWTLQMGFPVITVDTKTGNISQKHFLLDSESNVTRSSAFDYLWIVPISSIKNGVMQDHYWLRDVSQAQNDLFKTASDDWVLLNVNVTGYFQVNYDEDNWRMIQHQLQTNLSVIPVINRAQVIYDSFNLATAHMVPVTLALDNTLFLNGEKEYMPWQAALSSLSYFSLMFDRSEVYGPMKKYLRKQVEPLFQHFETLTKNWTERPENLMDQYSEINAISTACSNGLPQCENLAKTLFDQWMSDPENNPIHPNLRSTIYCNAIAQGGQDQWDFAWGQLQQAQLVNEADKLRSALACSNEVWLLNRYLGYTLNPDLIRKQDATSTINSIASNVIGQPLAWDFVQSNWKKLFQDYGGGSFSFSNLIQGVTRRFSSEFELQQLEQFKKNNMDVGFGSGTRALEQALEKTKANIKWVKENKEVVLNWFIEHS

[8] = target: T4, Peptide deformylase (Escherichia coli) (UniProt Q9JN24); experiment: Inhibition of Escherichia coli peptide deformylase at 100 uM after 1 hr by fluorescence polarization based competition assay
T4 sequence (whole entry): T2 sequence (Q9JN24 whole entry)

[9] = target: T5, Peptide deformylase, mitochondrial (Homo sapiens) (UniProt Q9HBH1); experiment: Inhibition of human peptide deformylase at 100 uM after 1 hr by fluorescence polarization based competition assay
T5 sequence (whole entry): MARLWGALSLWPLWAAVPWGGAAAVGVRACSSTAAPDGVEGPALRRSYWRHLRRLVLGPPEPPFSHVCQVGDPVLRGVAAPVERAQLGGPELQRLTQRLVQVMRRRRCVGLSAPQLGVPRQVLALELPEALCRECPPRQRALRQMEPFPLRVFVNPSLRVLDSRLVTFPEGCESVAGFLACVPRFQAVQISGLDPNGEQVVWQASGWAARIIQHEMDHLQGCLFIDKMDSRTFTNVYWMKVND

Work on `COc1cc(C(=O)c2coc3c2C(=O)C(=O)C(Br)=C3Br)cc(OC)c1OC` yielded an IC50 [1] of 37 µM, an IC50 [2] of 10 µM and an IC50 (HEK293) of 16 µM. For the same compound, the IC50 (Y79) was 33 µM, the Activity (HL-60 [3]) was 40% and the IC50 [4] was 21 µM. For the same compound, the IC50 (MOLT-3) was 2.9 µM, the inhibition [5] was 38% and the IC50 (HL-60 [6]) was 12 µM. It also gave an IC50 (Jurkat) of 2.8 µM, an IC50 (Peptide deformylase) greater than 100 µM and an inhibition [7] of 50%. The inhibition [8] was 32% and the inhibition [9] was 100%.
